Measurements as given in PubChem BioAssay (NCI).
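All cell lines were grown in 96-well plates and treated with compound for 48 hours. TGI: concentration producing complete growth inhibition.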

Experiments:
Experiment in all cases: NCI tumour cell line growth inhibition, 48 h
SF-268 CNS = system: SF-268 CNS
LOX IMVI melanoma = system: LOX IMVI melanoma
M14 melanoma = system: M14 melanoma
NCI-H522 lung = system: NCI-H522 lung
OVCAR-4 ovarian = system: OVCAR-4 ovarian
HCT-15 colon = system: HCT-15 colon
SR leukemia = system: SR leukemia
OVCAR-3 ovarian = system: OVCAR-3 ovarian
MDA-MB-435 = system: MDA-MB-435
COLO 205 colon = system: COLO 205 colon
HOP-62 NSCLC = system: HOP-62 NSCLC
BT-549 breast = system: BT-549 breast
RPMI-8226 leukemia = system: RPMI-8226 leukemia
MOLT-4 leukemia = system: MOLT-4 leukemia
KM12 colon = system: KM12 colon
SK-MEL-5 melanoma = system: SK-MEL-5 melanoma
MALME-3M melanoma = system: MALME-3M melanoma
K-562 leukemia = system: K-562 leukemia
DU-145 prostate = system: DU-145 prostate
HCT-116 colon = system: HCT-116 colon
UACC-257 melanoma = system: UACC-257 melanoma
NCI-H226 lung = system: NCI-H226 lung
TK-10 renal = system: TK-10 renal
CAKI-1 renal = system: CAKI-1 renal
T-47D breast = system: T-47D breast
786-0 renal = system: 786-0 renal
IGROV1 ovarian = system: IGROV1 ovarian
HL-60(TB) leukemia = system: HL-60(TB) leukemia
CCRF-CEM leukemia = system: CCRF-CEM leukemia
MDA-N = system: MDA-N
SF-539 CNS = system: SF-539 CNS
PC-3 prostate = system: PC-3 prostate
A498 renal = system: A498 renal
SN12C renal = system: SN12C renal
UACC-62 melanoma = system: UACC-62 melanoma
NCI-H23 lung = system: NCI-H23 lung
SNB-75 CNS = system: SNB-75 CNS
A549 NSCLC = system: A549 NSCLC
UO-31 renal = system: UO-31 renal
SK-MEL-2 melanoma = system: SK-MEL-2 melanoma
SF-295 CNS = system: SF-295 CNS
SW-620 colon = system: SW-620 colon
OVCAR-8 ovarian = system: OVCAR-8 ovarian
U251 CNS = system: U251 CNS
MDA-MB-231 breast = system: MDA-MB-231 breast
SK-OV-3 ovarian = system: SK-OV-3 ovarian
MCF7 breast = system: MCF7 breast
OVCAR-5 ovarian = system: OVCAR-5 ovarian
HT29 colon = system: HT29 colon
HOP-92 NSCLC = system: HOP-92 NSCLC
HCC-2998 colon = system: HCC-2998 colon
ACHN renal = system: ACHN renal
EKVX NSCLC = system: EKVX NSCLC
NCI/ADR-RES ovarian = system: NCI/ADR-RES ovarian
HS 578T breast = system: HS 578T breast
RXF 393 renal = system: RXF 393 renal
SK-MEL-28 melanoma = system: SK-MEL-28 melanoma
SNB-19 CNS = system: SNB-19 CNS

Measured: TGI

O=C(NNS(=O)(=O)c1ccccc1)c1csc(NC(=S)NC2CCCCC2)n1
52.6 µM: MDA-MB-231 breast
27.6 µM: SK-MEL-5 melanoma
45.3 µM: BT-549 breast
39.3 µM: SN12C renal
82.7 µM: NCI-H522 lung
62.3 µM: SF-539 CNS
74.1 µM: UO-31 renal
41.7 µM: SK-MEL-2 melanoma
34.4 µM: OVCAR-3 ovarian
52.9 µM: T-47D breast
36 µM: HCT-116 colon
81.5 µM: DU-145 prostate
61.4 µM: CAKI-1 renal
62.8 µM: SF-268 CNS
43.3 µM: MDA-MB-435 | COLO 205 colon
72.9 µM: SW-620 colon
85.1 µM: IGROV1 ovarian
93.6 µM: ACHN renal
32.4 µM: 786-0 renal
33.9 µM: LOX IMVI melanoma
61.3 µM: UACC-62 melanoma
40.2 µM: MDA-N
53.8 µM: UACC-257 melanoma
not listed: HS 578T breast | RXF 393 renal | SK-MEL-28 melanoma | SNB-19 CNS
> 100 µM: all other assays above

COc1cc(S(=O)(=O)Nc2ccc(-c3csc(N4C(=O)C(C)SC4c4ccccc4)n3)cc2)ccc1Cl (stereo not given)
43.2 µM: MCF7 breast
32.7 µM: SNB-75 CNS
47.4 µM: RXF 393 renal
54.2 µM: T-47D breast
21.5 µM: SK-MEL-2 melanoma
52.8 µM: UACC-62 melanoma
47.7 µM: HL-60(TB) leukemia
not listed: HOP-62 NSCLC | TK-10 renal | SF-295 CNS | U251 CNS | MDA-MB-231 breast | SK-OV-3 ovarian | HCC-2998 colon
> 100 µM: all other assays above
